The values below come from ChEMBL document CHEMBL1201862, “PubChem BioAssay data set” (2004).

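Where inhibition never reached the appropriate level, the endpoint shown equals the highest concentration tested. Otherwise, values were interpolated linearly from a five-concentration, 48-hour dose response in 96-well plates. GI50 marks 50% less growth.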 Calls of active or inactive are those of the source. Cut-off read from the data, not from the text of the source: active = GI50 up to about 1.1 µM and inactive = higher. Some results are limits rather than exact numbers.

Common to all, as to test: NCI anticancer screen, dose series, 48 h
Test [1] concerns OVCAR-4.
Test [2] has as its system SR.
Test [3] relates to DU-145.
Test [4] has as its system TK-10.
Test [5] concerns T47D.
For test [6], the system named is SN12C.
The test system of test [7] is OVCAR-3.
The subject of test [8] is MCF7.
In test [9] the test system is SNB-19.
The subject of test [10] is HOP-62.
For test [11], the system named is CAKI-1.
Test [12] concerns HL-60.
Test [13] concerns OVCAR-5.
Test [14] deals with UACC-62.
Test [15] deals with DMS-273.
The subject of test [16] is HOP-18.
Test [17] has as its system DLD-1.
Test [18] deals with DMS-114.
Test [19] concerns LXFL 529.
For test [20], the system named is XF498.

Turning to `Cc1ccc(S(=O)(=O)N2CCCN(S(=O)(=O)c3ccc(C)cc3)CC2)cc1`, the GI50 in test [1], in test [2], in test [3], in test [4], in [5] and in test [6] was > 100 µM (inactive) each time. Moreover, the GI50 in [7], in test [8] and in test [9] was > 100 µM (inactive) each time.
For the compound `COC(=O)C1C(C(=O)OC)N(Cc2ccccc2)C(=O)N1Cc1ccccc1` (stereo not drawn), the GI50 in test [1] is > 100 µM (inactive); in test [10], > 100 µM (inactive); in [3], > 100 µM (inactive); in test [11], 99.5 µM (inactive); in test [12], 13.3 µM (inactive); in test [4], > 100 µM (inactive). In addition, the GI50 is 68.9 µM (inactive) in test [5]; > 100 µM (inactive) in [6]; 61.8 µM (inactive) in [7]; 7.5 µM (inactive) in [8]; > 100 µM (inactive) in test [9]; > 100 µM (inactive) in test [13]. The GI50 in [14] is 64.6 µM (inactive).
For `CC(=O)OC1(C#N)CC2OC1C1C2N=NN1C(=O)OC(C)(C)C` (stereo not drawn), the GI50 in test [1] is 65.6 µM (inactive); in test [15] it was 29 µM (inactive); in test [10], > 100 µM (inactive); in [2], 32.8 µM (inactive); in [16] it was > 100 µM (inactive); in [17] it was 20.4 µM (inactive). Also, the GI50 in test [18] was 23.2 µM (inactive); in [11] it was > 100 µM (inactive); in test [19], 33 µM (inactive); in [4], 20.4 µM (inactive); in test [6] it was 35.6 µM (inactive); in [7] it was 47.6 µM (inactive). Further, the GI50 in test [13] is 54.6 µM (inactive); in [14] it was 19.5 µM (inactive).
On to `CCC(C(=O)c1ccc(OC)c(OC)c1)N(C(=O)C(F)(F)F)C(C)c1ccccc1` (stereo not drawn), for which the GI50 in test [10], in test [2], in [3], in test [11], in test [12] and in test [4] was > 100 µM (inactive) in each case. Besides, the GI50 in [5] was 91 µM (inactive); in [7], > 100 µM (inactive); in test [8], > 100 µM (inactive); in [9] it was > 100 µM (inactive); in [13] it was > 100 µM (inactive); in test [14], > 100 µM (inactive).
For the compound `Cc1nc2[nH]ncn2c(=O)c1CCCl`, the GI50 in test [1], in test [10], in test [2], in test [3], in test [11] and in test [12] was > 10 µM (inactive) throughout. The GI50 in [4], in [5], in test [6], in test [8], in test [9] and in test [13] was > 10 µM (inactive) each time. In addition, the GI50 in test [14] is > 10 µM (inactive).
Take `COc1ccc(C2COc3c(ccc(O)c3C)C2)cc1OC` (stereo not drawn): the GI50 in test [1] is 89.3 µM (inactive); in [15], 57.4 µM (inactive); in test [10], 163 µM (inactive); in test [16] it was 24.2 µM (inactive); in test [17], 42 µM (inactive); in test [18], 24.4 µM (inactive). The GI50 in test [11] is 112 µM (inactive); in [12], 21.6 µM (inactive); in test [20] it was 22.9 µM (inactive); in [6], 104 µM (inactive); in test [7], 70.1 µM (inactive); in test [8], 81.7 µM (inactive). The values for the GI50 in test [9], in test [13] and in test [14] were 143 µM (inactive), 119 µM (inactive) and 96.2 µM (inactive), respectively.
Consider `CC(C)(O)[C@H](CCO)O[Si](c1ccccc1)(c1ccccc1)C(C)(C)C`, for which the GI50 is 10.1 µM (inactive) in test [15]; 4.93 µM (inactive) in test [2]; 3.1 µM (inactive) in [16]; 8.93 µM (inactive) in test [17]; 4.99 µM (inactive) in test [12]; 11.6 µM (inactive) in test [19]. In addition, the GI50 in [20] is 8.18 µM (inactive); in [4], 13.2 µM (inactive); in test [6] it was 4.11 µM (inactive); in [7] it was 11.1 µM (inactive); in [9] it was 6.01 µM (inactive); in test [13] it was 14.9 µM (inactive). Further, the GI50 in test [14] was 11.3 µM (inactive).
Regarding `NNc1nnc(-c2ccccc2)nc1Cc1ccccc1`, the GI50 is 9.14 µM (inactive) in test [1]; 7.26 µM (inactive) in test [15]; 2.69 µM (inactive) in test [10]; 4.43 µM (inactive) in test [2]; 2.03 µM (inactive) in [16]; 13.4 µM (inactive) in test [17]. For the same compound, the GI50 is 3.17 µM (inactive) in test [18]; 13.8 µM (inactive) in test [11]; 4.32 µM (inactive) in test [12]; 3.85 µM (inactive) in test [19]; 7.41 µM (inactive) in [20]; 9.35 µM (inactive) in test [4]. Also, the GI50 in [6] is 5.79 µM (inactive); in [7] it was 3.61 µM (inactive); in test [9], 6.62 µM (inactive); in test [13], 6.65 µM (inactive); in test [14], 3.62 µM (inactive).
In the case of `COc1ccc(/C(Cl)=C(\C=O)c2ccccc2)cc1OC`, the GI50 in test [1] is 25 µM (inactive); in test [15] it was 29.8 µM (inactive); in test [10], 17.8 µM (inactive); in test [2], 5.68 µM (inactive); in [16] it was 30.1 µM (inactive); in test [17] it was 15.1 µM (inactive). Moreover, the GI50 was 13.1 µM (inactive) in test [18]; 24.4 µM (inactive) in [11]; 6.78 µM (inactive) in [12]; 12.4 µM (inactive) in test [19]; 21.4 µM (inactive) in test [4]; 11 µM (inactive) in [6]. The GI50 in [7] is 10.3 µM (inactive); in [9], 27.9 µM (inactive); in test [13], > 100 µM (inactive); in test [14], 7.6 µM (inactive).
Turning to `C=C1C(=O)O[C@@H]2OC3(C)CCC4C(C)CCC1C42OO3` (stereo partly drawn), the GI50 in [1] was 12.6 µM (inactive); in test [15], 3.41 µM (inactive); in test [10], 22.1 µM (inactive); in test [16], 16.5 µM (inactive); in test [17] it was 1.93 µM (inactive); in test [11], 2.36 µM (inactive). In addition, the GI50 was 0.449 µM (active) in test [12]; 2.16 µM (inactive) in [20]; 3.82 µM (inactive) in test [6]; 3.41 µM (inactive) in test [7]; 3.39 µM (inactive) in test [8]; 14.7 µM (inactive) in [9]. The GI50 in [13] is 15.7 µM (inactive); in test [14], 2.07 µM (inactive).
Turning to `CC(=O)OCC1OC(NC(=O)N(CCCl)N=O)C(OC(C)=O)C(OC(C)=O)C1OC(C)=O` (stereo not drawn), the GI50 in [1], in test [15], in test [10], in [16], in test [17] and in test [18] was > 100 µM (inactive) each time. Also, the GI50 in [11] was > 86.7 µM (inactive); in test [12], > 100 µM (inactive); in test [20], 75.9 µM (inactive); in test [6], > 100 µM (inactive); in [7] it was > 100 µM (inactive); in [8], > 100 µM (inactive). In addition, the GI50 in test [9] is > 65.8 µM (inactive); in test [13], > 100 µM (inactive); in test [14], 43.9 µM (inactive).
Take `NC(CCCCCP(=O)(O)O)C(=O)O` (stereo not drawn) [AP-7]: the GI50 in [1], in test [2], in test [3], in test [11], in test [12] and in test [4] was > 100 µM (inactive) in each case. Also, the GI50 was 83.8 µM (inactive) in test [5]; > 100 µM (inactive) in test [6]; > 100 µM (inactive) in [7]; > 100 µM (inactive) in test [9]; > 100 µM (inactive) in test [13]; 80.7 µM (inactive) in test [14].
